# Measurements reported in patent US8030321B2, “Benzofuro- and benzothienopyrimidine modulators of the histamine H4 receptor” (Janssen Pharmaceutica, NV, priority 2006, dated 2011).
# Structures can show the parent of a compound that is named as a salt. Where two headings read alike, the source gives them in different places.
# Target: T1, human histamine H4 receptor (Homo sapiens, UniProt Q9H3N8)
# T1 construct: expressed in transfected cells; host or cells: SK-N-MC cells or COS7 cells, transiently transfected; cell membranes used
# Assay: Binding Assay on Recombinant Human Histamine H4 Receptor
# Protocol: Binding Assay on Recombinant Human Histamine H4 Receptor
# SK-N-MC cells or COS7 cells were transiently transfected with pH4R and grown in 150 cm^2 tissue culture dishes. Cells were washed with saline solution, scraped with a cell scraper and collected by centrifugation (1000 rpm, 5 min). Cell membranes were prepared by homogenization of the cell pellet in 20 mM Tris-HCl with a polytron tissue homogenizer for 10 sec at high speed. Homogenate was centrifuged at 1000 rpm for 5 min at 4° C. […] The final pellet was resuspended in 50 mM Tris-HCl. Cell membranes were incubated with ^3H-histamine (5-70 nM) in the presence or absence of excess histamine (10,000 nM). […] Membranes were harvested by rapid filtration over Whatman GF/C filters and washed 4 times with ice-cold 50 mM Tris HCl. Filters were then dried, mixed with scintillant and counted for radioactivity. SK-N-MC or COS7 cells expressing human histamine H4 receptor were used to measure the affinity of binding of other compounds and their ability to displace ^3H-ligand binding by incubating the above-described reaction in the presence of various concentrations of inhibitor or compound to be tested.
# [1] = competition binding with 3H-histamine (5 nM), membranes of SK-N-MC or COS7 cells expressing human H4 receptor, Cheng-Prusoff, KD 5 nM, average of results obtained, read-out: Ki
# T1 sequence (Q9H3N8 whole entry): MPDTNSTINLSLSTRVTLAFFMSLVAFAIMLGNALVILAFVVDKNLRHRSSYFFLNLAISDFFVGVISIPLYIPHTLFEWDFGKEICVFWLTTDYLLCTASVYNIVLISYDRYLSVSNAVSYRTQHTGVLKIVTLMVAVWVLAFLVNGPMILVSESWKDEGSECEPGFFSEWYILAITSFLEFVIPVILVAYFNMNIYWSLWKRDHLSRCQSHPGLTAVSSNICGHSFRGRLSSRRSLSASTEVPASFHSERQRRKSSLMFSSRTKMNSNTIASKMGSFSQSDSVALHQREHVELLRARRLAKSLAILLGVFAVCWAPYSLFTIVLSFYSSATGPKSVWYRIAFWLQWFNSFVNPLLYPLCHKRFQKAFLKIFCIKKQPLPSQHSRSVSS
SMILES,Ki [1],Ki
"OCCNc1nc(N2C[C@@H]3C[C@H]2CN3)c2oc3ccc(Cl)cc3c2n1 [Example 125, (S,S)-2-[8-Chloro-4-(2,5-diaza-bicyclo[2.2.1]hept-2-yl)-benzo[4,5]furo[3,2-d]pyrimidin-2-ylamino]-ethanol]",580 nM,–
"CNc1nc(N2CCN(C)CC2)c2oc3ccc(Cl)cc3c2n1 [Example 124, [8-Chloro-4-(4-methyl-piperazin-1-yl)-benzo[4,5]furo[3,2-d]pyrimidin-2-yl]-methyl-amine]",97 nM,–
"Nc1nc(N2C[C@@H]3C[C@H]2CN3)c2sc3cc(Br)ccc3c2n1 [Example 77, (S,S)-7-Bromo-4-(2,5-diaza-bicyclo[2.2.1]hept-2-yl)-benzo[4,5]thieno[3,2-d]pyrimidin-2-ylamine trifluoroacetic acid salt]",3230 nM,–
"CN1CCN(c2nc(N)nc3c2oc2ccc(C(F)(F)F)cc23)CC1 [Example 139, 4-(4-Methyl-piperazin-1-yl)-8-trifluoromethyl-benzo[4,5]furo[3,2-d]pyrimidin-2-ylamine trifluoroacetic acid salt]",0.8 nM,–
"CN[C@@H]1CCN(c2nc(N)nc3c2oc2ccccc23)C1 [Example 6, (R)-4-(3-Methylamino-pyrrolidin-1-yl)-benzo[4,5]furo[3,2-d]pyrimidin-2-ylamine citric acid salt]",3.4 nM,–
"CN(C)[C@H]1CCCN(c2nc(N)nc3c2oc2ccc(Cl)cc23)C1 [Example 75, (S)-8-Chloro-4-(3-dimethylamino-piperidin-1-yl)-benzo[4,5]furo[3,2-d]pyrimidin-2-ylamine trifluoroacetic acid salt]",650 nM,–
"Nc1nc(N2CC[C@@H]3CNC[C@@H]32)c2oc3ccc(Cl)cc3c2n1 (relative stereo) [Example 95, (cis)-8-Chloro-4-(hexahydro-pyrrolo[3,4-b]pyrrol-1-yl)-benzo[4,5]furo[3,2-d]pyrimidin-2-ylamine trifluoroacetic acid salt]",140 nM,–
"Nc1nc(N2CCNCC2)c2oc3ccc(C(F)(F)F)cc3c2n1 [Example 142, 4-piperazin-1-yl-8-trifluoromethyl-benzo[4,5]furo[3,2-d]pyrimidin-2-ylamine trifluoroacetic acid salt]",13 nM,–
"CN[C@@H]1CCN(c2nc(N)nc3c2sc2ccc(F)cc23)C1 [Example 76, (R)-8-Fluoro-4-(3-methylamino-pyrrolidin-1-yl)-benzo[4,5]thieno[3,2-d]pyrimidin-2-ylamine trifluoroacetic acid salt]",32 nM,–
"CN[C@H]1CCCN(c2nc(N)nc3c2oc2ccc(Cl)cc23)C1 [Example 74, (S)-8-Chloro-4-(3-methylamino-piperidin-1-yl)-benzo[4,5]furo[3,2-d]pyrimidin-2-ylamine citrate salt]",216 nM,–
"COc1cccc2oc3c(N4C[C@@H]5C[C@H]4CN5)nc(N)nc3c12 [Example 85, (S,S)-4-(2,5-Diaza-bicyclo[2.2.1]hept-2-yl)-9-methoxy-benzo[4,5]furo[3,2-d]pyrimidin-2-ylamine trifluoroacetic acid salt]",> 10000 nM,–
"Nc1nc(N2C[C@@H]3C[C@H]2CN3)c2oc3ccc(C(F)(F)F)cc3c2n1 [Example 143, (S,S)-4-(2,5-Diaza-bicyclo[2.2.1]hept-2-yl)-8-trifluoromethyl-benzo[4,5]furo[3,2-d]pyrimidin-2-ylamine citrate salt]",270 nM,–
"NC1CN(c2nc(NCCO)nc3c2oc2ccc(Cl)cc23)C1 [Example 162, 2-[4-(3-Amino-azetidin-1-yl)-8-chloro-benzo[4,5]furo[3,2-d]pyrimidin-2-ylamino]-ethanol]",> 10000 nM,–
"CN[C@H]1CCN(c2nc(N)nc3c2sc2cc(C(F)(F)F)ccc23)C1 [Example 51, (S)-4-(3-Methylamino-pyrrolidin-1-yl)-7-trifluoromethyl-benzo[4,5]thieno[3,2-d]pyrimidin-2-ylamine trifluoroacetic acid salt]",> 10000 nM,–
"CN1CCN(c2nc(N(C)C)nc3c2oc2ccc(Cl)cc23)CC1 [Example 163, [8-Chloro-4-(4-methyl-piperazin-1-yl)-benzo[4,5]furo[3,2-d]pyrimidin-2-yl]-dimethyl-amine]",718 nM,–
"Nc1nc(N2CC3C(N)C3C2)c2oc3ccc(Cl)cc3c2n1 (stereo not shown) [Example 78, 4-(6-Amino-3-aza-bicyclo[3.1.0]hex-3-yl)-8-chloro-benzo[4,5]furo[3,2-d]pyrimidin-2-ylamine trifluoroacetic acid salt]",22 nM,–
"Nc1nc(N2C[C@@H]3C[C@H]2CN3)c2sc3cc(Cl)ccc3c2n1 [Example 62, (S,S)-7-Chloro-4-(2,5-diaza-bicyclo[2.2.1]hept-2-yl)-benzo[4,5]thieno[3,2-d]pyrimidin-2-ylamine trifluoroacetic acid salt]",–,880 nM

SMILES,Ki [1],Ki
"Nc1nc(N2CC(N)C2)c2oc3cccc(F)c3c2n1 [Example 138, 4-(3-Amino-azetidin-1-yl)-9-fluoro-benzo[4,5]furo[3,2-d]pyrimidin-2-ylamine trifluoroacetic acid salt]",> 10000 nM,–
"Nc1nc(N2CC3CCCNC3C2)c2oc3c(Cl)cc(Cl)cc3c2n1 (stereo not shown) [Example 2, 6,8-Dichloro-4-(octahydro-pyrrolo[3,4-b]pyridin-6-yl)-benzo[4,5]furo[3,2-d]pyrimidin-2-ylamine trifluoroacetic acid salt]",7.1 nM,–
"CN[C@@H]1CCN(c2nc(N)nc3c2oc2ccc(Cl)cc23)C1 [Example 18, (R)-8-Chloro-4-(3-methylamino-pyrrolidin-1-yl)-benzo[4,5]furo[3,2-d]pyrimidin-2-ylamine]",0.42 nM,–
"Nc1nc(N2CC3CCCNC3C2)c2sc3ccc(Br)cc3c2n1 (stereo not shown) [Example 45, 8-Bromo-4-(octahydro-pyrrolo[3,4-b]pyridin-6-yl)-benzo[4,5]thieno[3,2-d]pyrimidin-2-ylamine hydrochloride salt]",–,4.8 nM
"CN(C)[C@@H]1CCN(c2nc(N)nc3c2oc2ccccc23)C1 [Example 22, (R)-4-(3-Dimethylamino-pyrrolidin-1-yl)-benzo[4,5]furo[3,2-d]pyrimidin-2-ylamine trifluoroacetic acid salt]",12 nM,–
"CN1CCCN(c2nc(N)nc3c2oc2ccc(Cl)cc23)CC1 [Example 10, 8-Chloro-4-(4-methyl-[1,4]diazepan-1-yl)-benzo[4,5]furo[3,2-d]pyrimidin-2-ylamine]",0.74 nM,–
"OCCNc1nc(N2C[C@H]3CCCN[C@H]3C2)c2oc3ccc(Cl)cc3c2n1 (relative stereo) [Example 117, (cis)-2-[8-Chloro-4-(octahydro-pyrrolo[3,4-b]pyridin-6-yl)-benzo[4,5]furo[3,2-d]pyrimidin-2-ylamino]-ethanol]",930 nM,–
"CN1CCN(c2nc(N)nc3c2sc2cc(C(F)(F)F)ccc23)CC1 [Example 54, 4-(4-Methyl-piperazin-1-yl)-7-trifluoromethyl-benzo[4,5]thieno[3,2-d]pyrimidin-2-ylamine trifluoroacetic acid salt]",440 nM,–
"CN1CCN(c2nc(NC3CC3)nc3c2oc2ccc(Cl)cc23)CC1 [Example 119, [8-Chloro-4-(4-methyl-piperazin-1-yl)-benzo[4,5]furo[3,2-d]pyrimidin-2-yl]-cyclopropyl-amine]",350 nM,–
"CN[C@H]1CCN(c2nc(N)nc3c2sc2cc(Cl)ccc23)C1 [Example 61, (S)-7-Chloro-4-(3-methylamino-pyrrolidin-1-yl)-benzo[4,5]thieno[3,2-d]pyrimidin-2-ylamine trifluoroacetic acid salt]",33 nM,–
"CN[C@@H]1CCN(c2nc(N)nc3c2sc2ccc(Cl)cc23)C1 [Example 66, (R)-8-Chloro-4-(3-methylamino-pyrrolidin-1-yl)-benzo[4,5]thieno[3,2-d]pyrimidin-2-ylamine trifluoroacetic acid salt]",1 nM,–
"Nc1nc(N2CCNCC2)c2oc3cccc(F)c3c2n1 [Example 137, 9-Fluoro-4-piperazin-1-yl-benzo[4,5]furo[3,2-d]pyrimidin-2-ylamine trifluoroacetic acid salt]",150 nM,–
"C[C@@H]1CNCCN1c1nc(N)nc2c1oc1ccc(Cl)cc12 [Example 132, (R)-8-Chloro-4-(2-methyl-piperazin-1-yl)-benzo[4,5]furo[3,2-d]pyrimidin-2-ylamine trifluoroacetic acid salt]",120 nM,–
"CN(C)C1CCN(c2nc(N)nc3c2oc2ccc(Cl)cc23)C1 (stereo not shown) [Example 15, 8-Chloro-4-(3-dimethylamino-pyrrolidin-1-yl)-benzo[4,5]furo[3,2-d]pyrimidin-2-ylamine trifluoroacetic acid salt]",6.2 nM,–
"Nc1nc(N2CC(N)C2)c2oc3ccc(F)c(F)c3c2n1 [Example 150, 4-(3-Amino-azetidin-1-yl)-8,9-difluoro-benzo[4,5]furo[3,2-d]pyrimidin-2-ylamine trifluoroacetic acid salt]",5380 nM,–
"CC(C)N1CCCN(c2nc(N)nc3c2oc2ccc(Cl)cc23)CC1 [Example 3, 8-Chloro-4-(4-isopropyl-[1,4]diazepan-1-yl)-benzo[4,5]furo[3,2-d]pyrimidin-2-ylamine trifluoroacetic acid salt]",76 nM,–
"CN1CCN(c2nc(N)nc3c2sc2cc(Cl)ccc23)CC1 [Example 63, 7-Chloro-4-(4-methyl-piperazin-1-yl)-benzo[4,5]thieno[3,2-d]pyrimidin-2-ylamine trifluoroacetic acid salt]",19 nM,–
